According to ChEMBL document CHEMBL1201862, “PubChem BioAssay data set” (2004):
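1) Cells in 96-well plates. 2) Compound, 48 h, 5 concentrations. 3) Linear interpolation between surrounding doses. 4) Unreached endpoint = highest concentration. Here, GI50 denotes the concentration required for 50% inhibition of growth.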 Calls of active or inactive are those of the source. Cut-off read from the data, not from the text of the source: active = GI50 up to about 1.1 µM and inactive = higher.

How the values were obtained:
Assay in all cases: NCI tumour cell line growth inhibition, 48 h
SK-MEL-5 = tested on: SK-MEL-5
SF-268 = tested on: SF-268
U-251 = tested on: U-251
NCI/ADR-RES = tested on: NCI/ADR-RES
SK-OV-3 = tested on: SK-OV-3
HOP-92 = tested on: HOP-92
SR = tested on: SR
Hs-578T = tested on: Hs-578T
MOLT-4 = tested on: MOLT-4
SW-620 = tested on: SW-620
BT-549 = tested on: BT-549
CCRF-CEM = tested on: CCRF-CEM
NCI-H460 = tested on: NCI-H460
COLO 205 = tested on: COLO 205
HL-60 = tested on: HL-60
HOP-62 = tested on: HOP-62
SF-295 = tested on: SF-295
OVCAR-4 = tested on: OVCAR-4
A498 = tested on: A498
EKVX = tested on: EKVX
RXF 393 = tested on: RXF 393
HCT-15 = tested on: HCT-15
MDA-N = tested on: MDA-N
SN12C = tested on: SN12C
HT-29 = tested on: HT-29
Malme-3M = tested on: Malme-3M
T47D = tested on: T47D
UO-31 = tested on: UO-31
CAKI-1 = tested on: CAKI-1
IGROV-1 = tested on: IGROV-1
SK-MEL-28 = tested on: SK-MEL-28
MCF7 = tested on: MCF7
SF-539 = tested on: SF-539
MDA-MB-435 = tested on: MDA-MB-435
A549 = tested on: A549
TK-10 = tested on: TK-10
786-0 = tested on: 786-0
DU-145 = tested on: DU-145
K562 = tested on: K562
ACHN = tested on: ACHN
UACC-257 = tested on: UACC-257
NCI-H23 = tested on: NCI-H23
SNB-19 = tested on: SNB-19
LOX IMVI = tested on: LOX IMVI
M14 = tested on: M14
KM12 = tested on: KM12
HCC 2998 = tested on: HCC 2998
MDA-MB-231 = tested on: MDA-MB-231
PC-3 = tested on: PC-3
OVCAR-3 = tested on: OVCAR-3
UACC-62 = tested on: UACC-62
OVCAR-8 = tested on: OVCAR-8
HCT-116 = tested on: HCT-116
NCI-H226 = tested on: NCI-H226
RPMI-8226 = tested on: RPMI-8226
SK-MEL-2 = tested on: SK-MEL-2
OVCAR-5 = tested on: OVCAR-5
SNB-75 = tested on: SNB-75
NCI-H522 = tested on: NCI-H522

Measured: GI50

CC(C)=CCC[C@@H](C)C1=C(O)C(=O)C(C)=C(N)C1=O
inactive: SK-MEL-5 20.4 µM | SF-268 21.5 µM | U-251 34.8 µM | NCI/ADR-RES 3.9 µM | SK-OV-3 27.3 µM | HOP-92 53.8 µM | SR 16.7 µM | Hs-578T 38.9 µM | MOLT-4 6.5 µM | SW-620 43.1 µM | BT-549 42.2 µM | CCRF-CEM 6.11 µM | NCI-H460 10.2 µM | COLO 205 27.9 µM | HL-60 3.43 µM | HOP-62 23.2 µM | SF-295 12.9 µM | OVCAR-4 29.9 µM | A498 39.8 µM | EKVX 36.1 µM | RXF 393 32.9 µM | MDA-N 24.6 µM | SN12C 35.5 µM | HT-29 40.8 µM | Malme-3M 14.1 µM | T47D 23.9 µM | UO-31 11.1 µM | CAKI-1 24 µM | IGROV-1 7.69 µM | SK-MEL-28 34.8 µM | MCF7 50.8 µM | SF-539 31.6 µM | MDA-MB-435 41 µM | A549 25.8 µM | TK-10 50.2 µM | 786-0 33.4 µM | DU-145 42.7 µM | K562 23.2 µM | ACHN 18 µM | UACC-257 38.5 µM | NCI-H23 27.3 µM | SNB-19 32.5 µM | LOX IMVI 15.7 µM | M14 20.5 µM | KM12 23.3 µM | HCC 2998 59.6 µM | MDA-MB-231 46.5 µM | PC-3 47.8 µM | OVCAR-3 27.9 µM | UACC-62 15.6 µM | OVCAR-8 17.9 µM | HCT-116 45.1 µM | NCI-H226 20.8 µM | RPMI-8226 27.3 µM | SK-MEL-2 29 µM | OVCAR-5 81.5 µM | SNB-75 28.8 µM
4.85 µM: HCT-15

O=C1c2cc3c(cc2CC12Cc1cc4c(cc1C2=O)CCCC4)CCCC3
> 100 µM: HCT-15
inactive: SK-MEL-5 46.5 µM | SF-268 29.3 µM | U-251 30.8 µM | NCI/ADR-RES 24.6 µM | SK-OV-3 70 µM | HOP-92 18.9 µM | SR 37.1 µM | Hs-578T 28.3 µM | MOLT-4 > 100 µM | SW-620 > 100 µM | BT-549 56.4 µM | CCRF-CEM > 100 µM | NCI-H460 25.6 µM | COLO 205 > 100 µM | HL-60 34.9 µM | HOP-62 24.2 µM | SF-295 23.2 µM | OVCAR-4 18.1 µM | A498 > 100 µM | EKVX > 100 µM | RXF 393 16.4 µM | MDA-N > 100 µM | SN12C 56.2 µM | HT-29 > 100 µM | Malme-3M > 100 µM | T47D 18.5 µM | UO-31 > 100 µM | IGROV-1 71 µM | NCI-H522 > 100 µM | SK-MEL-28 > 100 µM | MCF7 > 100 µM | SF-539 52.2 µM | MDA-MB-435 > 100 µM | A549 59.2 µM | TK-10 31.8 µM | 786-0 21.1 µM | DU-145 66.1 µM | K562 78.5 µM | ACHN 62.1 µM | UACC-257 10.9 µM | NCI-H23 33.3 µM | SNB-19 33.8 µM | LOX IMVI > 100 µM | M14 65.2 µM | KM12 > 100 µM | HCC 2998 > 100 µM | MDA-MB-231 22.1 µM | PC-3 40.2 µM | OVCAR-3 23.7 µM | UACC-62 58.2 µM | OVCAR-8 > 100 µM | HCT-116 62.7 µM | NCI-H226 > 100 µM | RPMI-8226 > 100 µM | SK-MEL-2 75.9 µM | OVCAR-5 > 100 µM | SNB-75 17.9 µM
